One data set concerns LDL receptors. Put plainly: Ligand blot assay of hepatic LDL-receptors after GH treatment. Particulars: C57BL/6J mice, pooled livers. In kind it is in vivo. As for the experimental part: Ligand blot assay of LDL-receptors was performed using ^125I-labeled rabbit β-migrating very low density lipoprotein (VLDL), as described previously (Rudling et al 1992. PNAS 89; 6983-6987). Membrane proteins were separated by SDS-PAGE (6% poly-acrylamide). After electrotransfer of proteins to nitrocellulose filters and subsequent incubation ^125I-β-VLDL filters were exposed onto DuPont X-ray film at −70° C.
The absence of LDL receptors in LDLRKO animals was confirmed by ligand blot of hepatic membranes obtained from pooled livers from each animal group, using β-VLDL as ligand (not shown). The expression of LDL receptors in C57BL/6J mice was not altered by GH treatment.

Data set [1] has as its system cholesterol 7α hydroxylase (C7αOH). Put plainly: Enzymatic activity of C7αOH in hepatic microsomes after GH infusion. In kind it is in vivo, mice. Particulars: for increase of C7αOH activity: GH 1 mg/kg/day, six days, hepatic microsomes. An excerpt:
(§1) The studies were approved by the Institutional Animal Care and Use Committee, Sweden. Altogether 75 male LDLRKO and 45 C57 BL/6J mice were purchased from Bommice, Denmark. Animals were housed under standardized conditions in groups of ten. The mice had free access to water and chow; the light cycle hours were between 6 a.m. and 6:00 p.m. At the start of the experiment, osmotic mini pumps containing GH were implanted subcutaneously under light ether anesthesia. Non-GH treated animals were sham-operated. Recombinant human GH (Genotropin®), purchased from Pharmacia & Upjohn, was infused at a rate of 1.0 mg/kg per day. After six days of infusion, animals where anesthetized with ether, and blood was collected from the eye. The mice where thereafter killed by cervical dislocation. The livers were immediately removed and when indicated, 1 g of liver was taken for subsequent preparation of microsomes for assay of enzyme activity as described below. The remaining liver was immediately frozen in liquid nitrogen and stored at −70° C.
(§2) Hepatic microsomes were prepared by differential ultracentrifugation of liver homogenates in the absence of fluoride as previously described (Angelin et al 1984, J Lipid Res. 25; 1159-1166, Einarsson et al. 1986, J. Lipid Res. 27; 82-88, Einarsson et al. 1989, J. Lipid Res. 30; 739-746). Microsomal HMG CoA reductase was assayed from the conversion of [^14C] HMG CoA to mevalonate, and expressed as picomoles formed per mg protein per min. The activity of C7αOH was determined from the formation of 7α-hydroxycholesterol (picomoles/mg protein/min) from endogenous microsomal cholesterol by the use of isotope dilution-mass spectrometry as described in detail. All enzyme assays were carried out in duplicate.
(§3) The means and standard error of means from three separate pools of all animals are shown.

For data set [2], the system named is C57BL/6J mice. In words: GH infusion for six days: total plasma cholesterol, triglycerides and total hepatic cholesterol. The format is in vivo. Particulars: GH 1 mg/kg/d infusion.
From the text: as §1
(§4) The total hepatic cholesterol was determined, following extraction and subsequent drying under nitrogen from liver samples, as described (Rudling M. J. Lipid Res. 33: 493-50 1992). Total hepatic and plasma cholesterol and plasma triglycerides were assayed using commercial available methods (Boehringer-Mannheim, Mannheim, Germany).
(§5) Infusion of GH to C57BL/6J and LDLRKO mice. Two sets of ten animals of each strain were continuously infused at a rate of 1 mg/kg/d. After six days of treatment, animals were killed and plasma and livers were collected.
(§6) To confirm this surprising finding of a plasma cholesterol lowering effect of GH in LDLR deficient animals with pronounced hypercholesterolemia, the previous experiment was repeated. In addition, we wanted to also determine the enzymatic activities of 3-hydroxy-3-methyl-glutaryl coenzyme A, (HMG CoA) reductase, and cholesterol 7α hydroxylase, (C7αOH), being the rate limiting steps in the synthesis of cholesterol and bile acids, respectively. Animals received the same dose of GH that was infused for six days.
(§7) FIG. 1 is a graph that depicts total plasma cholesterol, triglycerides and total hepatic cholesterol in normal (C57 BL) and LDLRKO (KO) mice±GH (1 mg/kg/day) for 6 days. Each group consisted of 10 animals. Bars indicate SEM.
(§8) Each group consisted of 10 animals. Bars indicate SEM.

For data set [3], the system named is LDLRKO mice. The description is as above. In kind it is in vivo.
From the text: as §1, §4, §5, §6, §7, §8

A further data set relates to HMG CoA reductase mRNA. Put plainly: HMG CoA reductase mRNA levels by solution hybridization after GH infusion. The settings on record: liver. The format is in vivo, mice. The protocol:
(§9) Total nucleic acids were extracted from a sample of liver from each individual and incubated with the respective complementary radio-labeled cRNA probe.

A further data set concerns C7αOH mRNA. Put plainly: C7αOH mRNA levels by solution hybridization after GH infusion. Particulars: GH treatment, liver. The format is in vivo, mice. The protocol: as §9
A further data set has as its system HMG CoA reductase. In words: Enzymatic activity of HMG CoA reductase in hepatic microsomes after GH infusion. In kind it is in vivo, mice. Particulars: for increase of HMG CoA reductase activity: GH 1 mg/kg/day, six days, hepatic microsomes.
From the text: as §1, §2, §3

For data set [4], the system named is C57BL/6J mice. In words: FPLC size-fractionation of plasma lipoproteins after GH infusion. Particulars: pooled plasma, first experiment. The format is in vivo. As for the experimental part:
(§10) Equal volumes of plasma from each animal were pooled (1-2 mL) and the density was adjusted to 1.21 g/mL with solid KBr. After ultracentrifugation at 10^5 g for 48 h, the supernatant was removed and adjusted with 0.15 M NaCl, 0.01% etylene diamine tetraacetic acid, (EDTA), 0.02% sodium azide, pH 7.3. An aliquot of this solution was injected on a 54×1.8 cm superose 6B column after filtration through a Millipore […] HA filter, 2-mL fractions were collected.
(§11) FIGS. 2 and 3 show the lipoprotein patterns in the four groups of animals described in legend to FIG. 1. Equal volumes of plasma from each animal were pooled and subjected to ultracentrifugation at density 1.21. The supernatant was thereafter separated on a Superose 6 column and fractionated.

The test system of data set [5] is LDLRKO mice. The description is as above. In kind it is in vivo. The protocol: as §10, §11
The subject of data set [6] is LDLRKO mice. Put plainly: Cholestyramine, atorvastatin and GH alone and in combination: plasma cholesterol and triglycerides. The format is in vivo. The settings on record: 6 days of treatment.
Where [7] appears, read: LDLRKO mice, GH 1 mg/kg/d infusion, six days.
The mark [8] stands for this setting: repeated experiment, same GH dose, six days (FIG. 4).

Entries after “also recorded” stand apart in the source; their conditions may differ.

These results are taken from patent publication US6559289B1, “Use of growth hormone or analogues thereof for the treatment of mammals with familial hypercholesterolemia” (Salhtech I Goteborg AB, priority 1998, dated 2003).

Turning to “GH: Recombinant human GH (Genotropin), purchased from Pharmacia & Upjohn, infused at 1.0 mg/kg per day”, the “expression of LDL receptors (ligand blot of hepatic membranes)” value in the data set with LDL receptors was “not altered”. Moreover, the “increase of C7αOH activity” value in data set [1] (C57/BL6J mice) was determined as 115%; in data set [1] (LDLRKO mice), 46%. For the same substance, the “enzymatic activity of C7αOH (in words)” value in data set [1] (LDLRKO mice, GH infusion) is “stimulated; also recorded: normalized”; in data set [1] (normal mice, GH treatment) it was “stimulated”. Besides, the total plasma cholesterol result in the data set on C57BL/6J mice [2] (C57BL/6J (normal) mice) was “no significant effect; also recorded: no reduction”; in the data set on LDLRKO mice [3] (LDLRKO mice, GH 1 mg/kg/d infusion, six days, first experiment), “clearly reduced”. Moreover, the total plasma triglycerides result is reported as “unaltered” in the data set with C57BL/6J mice [2] (C57BL/6J mice) and “slight but not significant reduction” in the data set with LDLRKO mice [3] (setting [7]). For the same substance, the total hepatic cholesterol entry with C57BL/6J mice [2] (normal C57BL/6J mice) is recorded as “slightly increased”; with LDLRKO mice [3] (setting [7]) it was “slight reduction”. In addition, the “reduced plasma cholesterol level” value with LDLRKO mice [3] (LDL-receptor knockout mice, GH infusion) is listed as 30-40%. In addition, the “reduction of total plasma cholesterol versus first experiment” value in the data set with LDLRKO mice [3] (setting [8]) is given as “slightly less pronounced”. Further, in the data set with LDLRKO mice [3] (setting [8]), the “total plasma cholesterol and triglycerides, and total hepatic cholesterol versus first experiment” value is “practically identical results”. Besides, the “HMG CoA reductase mRNA levels” value in the data set with HMG CoA reductase mRNA (C57/BL6J mice) was “no effect”. In addition, the “increase of HMG CoA reductase mRNA levels” value in the data set on HMG CoA reductase mRNA (LDLRKO mice) is listed as 20%. Besides, the “reduction in C7αOH mRNA level” value in the data set with C7αOH mRNA (C57/BL6J mice) is on record as 50%. Further, the “increase of C7αOH mRNA level” value in the data set on C7αOH mRNA (LDLRKO mice) stood at 170%. Besides, the “increase of HMG CoA reductase activity” value in the data set on HMG CoA reductase (C57/BL6J mice) came out at 53%; in the data set with HMG CoA reductase (LDLRKO mice), 113%. Also, the “enzymatic activity of HMG CoA reductase (in words)” value in the data set with HMG CoA reductase (LDLRKO mice, GH infusion) is given as “increased the activity to the same level as found in normal C57BL/6J animals; also recorded: normalized”. Further, the “lipoprotein triglycerides by FPLC size fraction” value in the data set with C57BL/6J mice [4] is “increased triglycerides within VLDL particles”. The “reduction of lipoprotein cholesterol by FPLC size fraction” value with LDLRKO mice [5] (LDLRKO mice, pooled plasma, first experiment (FIG. 2)) was “within all size fractions”. The “reduction in lipoprotein triglycerides by FPLC size fraction” value in the data set with LDLRKO mice [5] (LDLRKO mice, pooled plasma, first experiment (FIG. 3)) was “only within VLDL particles”. Besides, the “plasma lipoprotein cholesterol by FPLC” value in the data set with LDLRKO mice [5] (repeated experiment (FIG. 5)) was “lowered plasma lipoprotein cholesterol, particularly within VLDL and LDL particles”. Further, the “lipoprotein triglycerides by FPLC” value in the data set with LDLRKO mice [5] (repeated experiment (FIG. 6)) is “not only reduced among VLDL particles but also within LDL and HDL particles”. Besides, the “reduction of plasma cholesterol” value in the data set on LDLRKO mice [6] (groups of 5) is 10%. In addition, the “reduction of plasma triglycerides” value in the data set with LDLRKO mice [6] (groups of 5) is reported as “approx. 20%”.
Take cholestyramine [reference compound]: the “effect on plasma cholesterol (in words)” value in the data set on LDLRKO mice [6] (drug alone) is “no effects”.
